Assay results published in patent EP4656642A1, “ESTROGEN RECEPTOR PROTEOLYSIS TARGETING CHIMERA COMPOUND AND USE THEREOF” (GAN & LEE PHARM CO., LTD, priority 2023, dated 2024).

Assays:
Type in all cases: cell-based
T-47D cells = experiment: Inhibition of cell proliferation in T-47D cells (CCK-8, 6 days); details: 6 days of treatment, Table 3
From the text: Test Example 2: Inhibitory effect of the PROTAC compounds provided in the present disclosure on cell proliferation in T-47D cells (source ATCC)
The complete medium required for T-47D cells was 1640 ( ATCC, Product number: A10491-01) basal medium containing 10% fetal bovine serum. T-47D cells were inoculated in 96-well plates at a density of 3,000 cells/well, and different concentrations of the PROTAC compounds 1-55 provided in the examples of the present disclosure and a positive control sample ARV-471 (source: Innochem) were prepared to treat cells, and the cells were treated at 37°C in a cell culture incubator with 5% CO2 for 6 days. Cell viability was detected using a CCK-8 kit (Beyotime, Product number: C0040) according to the manufacturer's instructions. […] Table 2 IC50 values for inhibition of the proliferation of T-47D cells by the PROTAC compounds provided by the present disclosure and the positive control sample

MCF-7 cells = experiment: Inhibition of cell proliferation of MCF-7 cells (CCK-8, 9 days); details: treated for 9 days, CCK-8 kit (Table 6)
Procedure, shortened: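 Read-out was CCK-8 viability after 9-day continuous exposure (37°C, 5% CO2) of MCF-7 cells plated at 800/well in 10% FBS DMEM across several compound concentrations. Values are proliferation IC50s.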

ERα [1] = biological target: T1, ERα (Homo sapiens, UniProt P03372); experiment: Degradation of ERα in MCF-7 cells (immunoblotting, 4 h)
T1 sequence (P03372 1-595): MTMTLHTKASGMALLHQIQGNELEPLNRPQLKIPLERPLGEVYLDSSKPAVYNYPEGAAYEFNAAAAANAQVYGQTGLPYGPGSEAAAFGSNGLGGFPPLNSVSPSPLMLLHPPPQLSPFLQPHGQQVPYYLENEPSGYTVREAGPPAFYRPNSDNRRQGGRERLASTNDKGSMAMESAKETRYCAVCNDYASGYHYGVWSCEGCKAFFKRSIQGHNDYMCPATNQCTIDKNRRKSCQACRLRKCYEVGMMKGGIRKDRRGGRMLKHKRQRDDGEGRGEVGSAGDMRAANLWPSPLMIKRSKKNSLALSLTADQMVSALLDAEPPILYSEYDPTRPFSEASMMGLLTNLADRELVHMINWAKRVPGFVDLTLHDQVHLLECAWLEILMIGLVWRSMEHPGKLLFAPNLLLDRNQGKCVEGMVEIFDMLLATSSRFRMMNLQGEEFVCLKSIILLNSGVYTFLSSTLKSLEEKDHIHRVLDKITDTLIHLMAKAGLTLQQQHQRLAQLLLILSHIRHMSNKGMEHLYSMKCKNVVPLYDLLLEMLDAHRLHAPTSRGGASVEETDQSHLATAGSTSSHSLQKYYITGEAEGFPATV
Procedure, shortened: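 Degradation rate reflects ERα band intensity, corrected to an internal reference protein, relative to control. Values come from Western blotting of lysates from MCF-7 cells exposed 4 h at 37°C to compounds at final concentrations of 0.15-1000nM.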

ERα [2] = biological target: T1, ERα; experiment: Degradation of ERα in T-47D cells (immunoblotting, 4 h); set-up: host or cells: T-47D
Procedure, shortened: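 ERα protein levels were assessed by immunoblot of RIPA lysates (with protease inhibitor) after 4 h exposure at 37°C. Compound was added in DMSO to T-47D cells at final concentrations of 0.15-1000 nM.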

| SMILES | IC50 (T-47D cells) | IC50 (MCF-7 cells) | Degradation rate (%) of ERα in MCF-7 cells (ERα [1]; 1nM compound) | Degradation rate (%) of ERα in MCF-7 cells (ERα [1]; 10nM compound) | Degradation rate (%) of ERα in T-47D cells (ERα [2]; 1nM compound) | Degradation rate (%) of ERα in T-47D cells (ERα [2]; 10nM compound) |
| --- | --- | --- | --- | --- | --- | --- |
| O=C1CCC(N2Cc3cc4c(cc3C2=O)OC2(CC4)CN(C(=O)C3CCN(c4ccc([C@@H]5c6ccc(O)cc6CC[C@@H]5c5ccccc5)cc4)CC3)C2)C(=O)N1 (stereo partly drawn) [A51] | 12.2 nM | 2920 nM | 5% | 15% | -10% | 3% |
| O=C1CCC(N2Cc3c(ccc4c3OCC43CCN(C(=O)C4CCN(c5ccc([C@@H]6c7ccc(O)cc7CC[C@@H]6c6ccccc6)cc5)CC4)CC3)C2=O)C(=O)N1 (stereo partly drawn) [A52] | 10.9 nM | 5680 nM | -22% | -33% | 3% | 2% |
| O=C1CCC(N2Cc3cc4c(cc3C2=O)CCC2(CN(C3CCN(C5CCN(c6ccc([C@@H]7c8ccc(O)cc8CC[C@@H]7c7ccccc7)cc6)CC5)CC3)C2)O4)C(=O)N1 (stereo partly drawn) [A53] | 3.87 nM | < 0.256 nM | 10% | 45% | 37% | 66% |
| O=C1CCC(N2Cc3c(ccc4c3OCC43CCN(C4CCN(C5CCN(c6ccc([C@@H]7c8ccc(O)cc8CC[C@@H]7c7ccccc7)cc6)CC5)CC4)CC3)C2=O)C(=O)N1 (stereo partly drawn) [A54] | 6.16 nM | < 0.256 nM | 40% | 65% | 15% | 62% |
| O=C1CCC(N2Cc3c(ccc4c3OC3(CC4)CCN(C4CCN(C5CN(c6ccc([C@@H]7c8ccc(O)cc8CC[C@@H]7c7ccccc7)cc6)C5)CC4)CC3)C2=O)C(=O)N1 (stereo partly drawn) [A60] | 18.3 nM | 825 nM | -31% | -14% | 11% | -1% |
| O=C1CCC(N2Cc3c(ccc4c3OCC43CCN(C4CCN(C5CN(c6ccc([C@@H]7c8ccc(O)cc8CC[C@@H]7c7ccccc7)cc6)C5)CC4)CC3)C2=O)C(=O)N1 (stereo partly drawn) [A61] | 27 nM | 837 nM | -4% | -19% | 9% | -2% |
| O=C1CCC(N2Cc3cc4c(cc3C2=O)CCC2(CN(C(=O)CN3CCC5(CC3)CCN(c3ccc([C@@H]6c7ccc(O)cc7CC[C@@H]6c6ccccc6)cc3)CC5)C2)O4)C(=O)N1 (stereo partly drawn) [A69] | 3.53 nM | 90.8 nM | 21% | 35% | 19% | 67% |
| O=C1CCC(N2Cc3c(ccc4c3OCC43CCN(C4CCN(C(=O)C5CC6(CCN(c7ccc([C@@H]8c9ccc(O)cc9CC[C@@H]8c8ccccc8)cc7)CC6)C5)CC4)CC3)C2=O)C(=O)N1 (stereo partly drawn) [A85] | 1.12 nM | 9880 nM | 45% | 65% | 68% | 88% |
| O=C1CCC(N2Cc3c(ccc4c3OCC43CCN(C(=O)C4CC5(CCN(c6ccc([C@@H]7c8ccc(O)cc8CC[C@@H]7c7ccccc7)cc6)CC5)C4)CC3)C2=O)C(=O)N1 (stereo partly drawn) [A86] | 1.64 nM | 85 nM | 5% | 32% | 46% | 74% |
| CC(C(=O)N1CCC2(CC1)COc1c2ccc2c1CN(C1CCC(=O)NC1=O)C2=O)N1CCC2(CCN(c3ccc([C@@H]4c5ccc(O)cc5CC[C@@H]4c4ccccc4)cc3)CC2)C1 (stereo partly drawn) [A88] | 1.18 nM | 66.8 nM | 57% | 54% | 65% | 72% |
| O=C1CCC(N2Cc3c(ccc4c3OCC43CCN(C4CCN(C(=O)C5(F)CCN(c6ccc([C@@H]7c8ccc(O)cc8CC[C@@H]7c7ccccc7)cc6)CC5)CC4)CC3)C2=O)C(=O)N1 (stereo partly drawn) [A89] | 2.16 nM | 110 nM | 48% | 72% | 40% | 70% |
| C[C@@H]1CC2(CCN(c3ccc([C@@H]4c5ccc(O)cc5CC[C@@H]4c4ccccc4)cc3)CC2)CN1CC(=O)N1CCC2(CC1)COc1c2ccc2c1CN(C1CCC(=O)NC1=O)C2=O (stereo partly drawn) [A90] | 1.78 nM | 52.8 nM | 50% | 72% | 42% | 79% |
| CC(C)(C(=O)N1CCC2(CC1)COc1c2ccc2c1CN(C1CCC(=O)NC1=O)C2=O)N1CCC2(CCN(c3ccc([C@@H]4c5ccc(O)cc5CC[C@@H]4c4ccccc4)cc3)CC2)C1 (stereo partly drawn) [A91] | 1.11 nM | 325 nM | 2% | 33% | -1% | 49% |
| O=C1CCC(N2Cc3ccc4c(c3C2=O)OCC42CCN(C(=O)CN3CCC4(CCN(c5ccc([C@@H]6c7ccc(O)cc7CC[C@@H]6c6ccccc6)cc5)CC4)C3)CC2)C(=O)N1 (stereo partly drawn) [A92] | 1.34 nM | 11.6 nM | 36% | 66% | 48% | 66% |
| O=C1CCC(N2Cc3ccc4c(c3C2=O)OCC42CCN(C3CCN(C(=O)C4(F)CCN(c5ccc([C@@H]6c7ccc(O)cc7CC[C@@H]6c6ccccc6)cc5)CC4)CC3F)CC2)C(=O)N1 (stereo partly drawn) [A93] | 1.85 nM | 10.5 nM | 31% | 69% | 26% | 71% |
| O=C1CCC(N2Cc3ccc4c(c3C2=O)OCC42CCN(C3CCN(C(=O)C4CCN(c5ccc([C@@H]6c7ccc(O)cc7CC[C@@H]6c6ccccc6)cc5)CC4)CC3)CC2)C(=O)N1 (stereo partly drawn) [A94] | 2.74 nM | 45 nM | 22% | 48% | 54% | 80% |
| CCC(C(=O)N1CCC2(CC1)COc1c2ccc2c1CN(C1CCC(=O)NC1=O)C2=O)N1CCC2(CCN(c3ccc([C@@H]4c5ccc(O)cc5CC[C@@H]4c4ccccc4)cc3)CC2)C1 (stereo partly drawn) [A95] | 1.49 nM | 201 nM | 42% | 48% | 52% | 68% |
| C[C@@H]1CN(C(=O)C2(F)CCN(c3ccc([C@@H]4c5ccc(O)cc5CC[C@@H]4c4ccccc4)cc3)CC2)CCC1N1CCC2(CC1)COc1c2ccc2c1CN(C1CCC(=O)NC1=O)C2=O (stereo partly drawn) [A96] | 3.38 nM | 11 nM | 40% | 66% | 31% | 78% |
| C[C@H]1CN(C(=O)C2(F)CCN(c3ccc([C@@H]4c5ccc(O)cc5CC[C@@H]4c4ccccc4)cc3)CC2)CCC1N1CCC2(CC1)COc1c2ccc2c1CN(C1CCC(=O)NC1=O)C2=O (stereo partly drawn) [A97] | 2.33 nM | 217 nM | 50% | 75% | 45% | 78% |
